Row | melting point [°C] | SMILES
1 | 166 to 168 | O=c1ccc(S(=O)(=O)c2ccc(Cl)c(Cl)c2)n[nH]1 [Example 4D, 6-(3,4-Dichloro-benzenesulfonyl)-2H-pyridazin-3-one]
2 | > 220 | O=c1ccc(S(=O)(=O)c2cccc(Br)c2)n[nH]1 [Example 4I, 6-(3-Bromo-benzenesulfonyl)-2H-pyridazin-3-one]
3 | > 250 | Cc1cc(Cl)cc(S(=O)(=O)c2ccc(=O)[nH]n2)c1 [Example 4M, 6-(3-Chloro-5-methyl-benzenesulfonyl)-2H-pyridazin-3-one]
4 | > 250 | O=c1ccc(S(=O)(=O)c2c(F)cc(F)cc2Cl)n[nH]1 [Example 4N, 6-(2-Chloro-4,6-difluoro-benzenesulfonyl)-2H-pyridazin-3-one]
